These results are taken from PubChem BioAssay (NCI).

Several values for one entry are separate records, joined by “and”; a condition that tells them apart may be missing. Equal values may be shown once.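 Grown in 96-well plates, cells were treated for 48 hours with each compound at five concentrations. Insufficient inhibition: endpoint recorded as highest concentration tested. The concentration for 50% growth inhibition is given as GI50. TGI: concentration producing complete growth inhibition.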

Test systems include UO-31 renal; RPMI-8226 leukemia; SF-539 CNS; TK-10 renal; A549 NSCLC; DU-145 prostate; SNB-75 CNS; UACC-62 melanoma; SK-MEL-5 melanoma; NCI/ADR-RES ovarian.
Experiment in all cases: growth of human tumour cells (NCI), 48 h

In the case of `NC(=O)CCC(NC(=O)OCc1ccccc1)C(=O)OCC(=O)c1ccccc1` (stereo not drawn), the GI50 with UO-31 renal, in the experiment on RPMI-8226 leukemia, in the experiment on SF-539 CNS, in the experiment on TK-10 renal, in the experiment with A549 NSCLC and with DU-145 prostate was over 100 µM in each case. Moreover, the GI50 with SNB-75 CNS, in the experiment on UACC-62 melanoma, with SK-MEL-5 melanoma and in the experiment with NCI/ADR-RES ovarian was over 100 µM in each case. Moreover, the TGI in the experiment with UO-31 renal, with RPMI-8226 leukemia, in the experiment on SF-539 CNS, with TK-10 renal, in the experiment on A549 NSCLC and in the experiment with DU-145 prostate was over 100 µM each time. Also, the TGI in the experiment on SNB-75 CNS, in the experiment on UACC-62 melanoma, with SK-MEL-5 melanoma and in the experiment with NCI/ADR-RES ovarian was over 100 µM in each case.
In the case of `CCCS(=O)(=O)Nc1ccc(F)c(C(=O)c2c[nH]c3ncc(-c4ccc(Cl)cc4)cc23)c1F`, the GI50 in the experiment on UO-31 renal was 4.96 µM and 4.79 µM; in the experiment on RPMI-8226 leukemia it was 3.9 µM and 6.36 µM; with SF-539 CNS, 3.91 µM and 4.51 µM; with TK-10 renal, 5.99 µM and 5.48 µM; in the experiment with A549 NSCLC, 3.46 µM and 6.38 µM; in the experiment with DU-145 prostate, 5.62 µM and 7.49 µM. The GI50 is 2.48 µM and 2.38 µM in the experiment with SNB-75 CNS; 0.0241 µM and 0.034 µM in the experiment with UACC-62 melanoma; 0.471 µM and 1.85 µM in the experiment with SK-MEL-5 melanoma; 6.75 µM and > 10 µM with NCI/ADR-RES ovarian. The TGI in the experiment on UO-31 renal is 15.1 µM and > 10 µM; in the experiment with RPMI-8226 leukemia, 37.4 µM and > 10 µM; in the experiment with SF-539 CNS it was 17.1 µM and > 10 µM; with TK-10 renal, 34.6 µM and > 10 µM; in the experiment on A549 NSCLC, 25 µM and > 10 µM; in the experiment with DU-145 prostate, 19.7 µM and > 10 µM. For the same molecule, the TGI in the experiment with SNB-75 CNS was 16.6 µM and > 10 µM; in the experiment with UACC-62 melanoma it was 0.496 µM and 0.485 µM; in the experiment with SK-MEL-5 melanoma, 13.6 µM and > 10 µM; in the experiment with NCI/ADR-RES ovarian it was 31.6 µM and > 10 µM.
With `CN1/C(=C\C(I)C(I)C2=[N+](C)c3ccccc3C2(C)C)C(C)(C)c2ccccc21` (stereo not drawn), the GI50 in the experiment on UO-31 renal is 0.601 µM; in the experiment on RPMI-8226 leukemia, 0.057 µM; in the experiment with SF-539 CNS it was 0.783 µM; in the experiment on TK-10 renal it was 0.521 µM; in the experiment with A549 NSCLC it was 0.283 µM; in the experiment on DU-145 prostate, 0.386 µM. Besides, the GI50 was 0.416 µM with SNB-75 CNS, 0.303 µM in the experiment with UACC-62 melanoma, 0.126 µM in the experiment on SK-MEL-5 melanoma and 13.3 µM in the experiment on NCI/ADR-RES ovarian. For the same molecule, the TGI was 9.75 µM with UO-31 renal; 2.67 µM in the experiment with RPMI-8226 leukemia; 23.6 µM in the experiment with SF-539 CNS; 27.9 µM in the experiment with TK-10 renal; 18.3 µM with A549 NSCLC; over 56.7 µM in the experiment on DU-145 prostate. For the same molecule, the TGI amounted to 9.77 µM in the experiment with SNB-75 CNS, 14.2 µM in the experiment with UACC-62 melanoma, 0.528 µM in the experiment with SK-MEL-5 melanoma and 42.2 µM in the experiment on NCI/ADR-RES ovarian.
In the case of `COc1ccc(-c2ccc3c(NC(=O)C4CC4)n[nH]c3n2)cc1`, the GI50 in the experiment with UO-31 renal is over 20 µM; in the experiment on RPMI-8226 leukemia, over 25 µM; in the experiment with SF-539 CNS, over 25 µM; with TK-10 renal, over 25 µM; in the experiment on A549 NSCLC it was over 25 µM; in the experiment with DU-145 prostate, over 25 µM. For the same molecule, the GI50 is 5.1 µM in the experiment with SNB-75 CNS, over 25 µM in the experiment on UACC-62 melanoma, over 25 µM in the experiment on SK-MEL-5 melanoma and over 25 µM with NCI/ADR-RES ovarian. Besides, the TGI in the experiment with UO-31 renal, with RPMI-8226 leukemia, in the experiment with SF-539 CNS, in the experiment with TK-10 renal, in the experiment on A549 NSCLC and in the experiment on DU-145 prostate was over 25 µM each time. The TGI is over 17.2 µM in the experiment on SNB-75 CNS, over 25 µM in the experiment on UACC-62 melanoma, over 25 µM in the experiment with SK-MEL-5 melanoma and over 25 µM in the experiment on NCI/ADR-RES ovarian.
In the case of `CC(=O)OCC1OC(OC2C(COC(C)=O)OC(OCCC[S-])C(OC(C)=O)C2OC(C)=O)C(OC(C)=O)C(OC(C)=O)C1OC(C)=O.[Au+].c1ccc(CN2[CH-]N(Cc3ccccc3)C(c3ccccc3)=C2c2ccccc2)cc1` (stereo not drawn), the GI50 in the experiment with UO-31 renal was 2.61 µM; in the experiment on RPMI-8226 leukemia, 2.78 µM; with SF-539 CNS it was 4.46 µM; with TK-10 renal, 3.57 µM; in the experiment on A549 NSCLC, 4.29 µM; with DU-145 prostate, 4.5 µM. Moreover, the GI50 in the experiment with SNB-75 CNS is 2.86 µM; in the experiment with UACC-62 melanoma, 2.63 µM; in the experiment on SK-MEL-5 melanoma it was 1.97 µM; in the experiment with NCI/ADR-RES ovarian, 19.5 µM. Besides, the TGI came to 10.7 µM in the experiment on UO-31 renal; 11.1 µM in the experiment on RPMI-8226 leukemia; 17.6 µM in the experiment with SF-539 CNS; 14.8 µM in the experiment with TK-10 renal; 25 µM in the experiment with A549 NSCLC; 17 µM with DU-145 prostate. In addition, the TGI was 17 µM with SNB-75 CNS, 8.96 µM with UACC-62 melanoma, 4.41 µM in the experiment on SK-MEL-5 melanoma and over 100 µM in the experiment on NCI/ADR-RES ovarian.
On to `CN(C)c1ccc(/C=C2\C[C@H]3[C@@H]4CC=C5C[C@@H](N6CCCC6)CC[C@]5(C)[C@H]4CC[C@]3(C)[C@H]2O)cc1`, for which the GI50 in the experiment with UO-31 renal is 1.96 µM; in the experiment on RPMI-8226 leukemia it was 3.1 µM; with TK-10 renal, 3.76 µM; in the experiment on A549 NSCLC, 3.79 µM; in the experiment with DU-145 prostate it was 13.7 µM; with SNB-75 CNS, 3.4 µM. Further, the figures for the GI50 in the experiment with UACC-62 melanoma, in the experiment on SK-MEL-5 melanoma and with NCI/ADR-RES ovarian were 2 µM, 3.44 µM and 4.01 µM, respectively. Moreover, the TGI in the experiment on UO-31 renal is 1.62 µM and 4.25 µM; in the experiment with SF-539 CNS, 12.8 µM; with TK-10 renal it was 3.17 µM and 11.7 µM; in the experiment on A549 NSCLC it was 4.41 µM and 15.3 µM; with DU-145 prostate it was 13.7 µM and > 100 µM; in the experiment on SNB-75 CNS, 3.01 µM and 14.9 µM. The TGI in the experiment with UACC-62 melanoma was 1.6 µM and 4.05 µM; with SK-MEL-5 melanoma, 1.62 µM and 12.7 µM; in the experiment with NCI/ADR-RES ovarian, 6.19 µM and 19.9 µM.
`Cc1ccc2c(c1)C(=O)c1c-2n(CCCN)c(=O)c2cc([N+](=O)[O-])ccc12`: the GI50 is 0.144 µM with UO-31 renal; 0.0199 µM in the experiment with RPMI-8226 leukemia; 0.732 µM in the experiment on SF-539 CNS; 0.567 µM in the experiment on TK-10 renal; 0.2 µM in the experiment with A549 NSCLC; 0.262 µM in the experiment on DU-145 prostate. In addition, the GI50 was 0.385 µM in the experiment with SNB-75 CNS, 0.522 µM in the experiment with UACC-62 melanoma, 1.1 µM with SK-MEL-5 melanoma and 0.594 µM with NCI/ADR-RES ovarian. The TGI is 0.811 µM in the experiment on UO-31 renal; 0.226 µM in the experiment with RPMI-8226 leukemia; 1.44 µM in the experiment on SF-539 CNS; 1.24 µM in the experiment on TK-10 renal; 0.887 µM with A549 NSCLC; 0.89 µM with DU-145 prostate. For the same molecule, the TGI with SNB-75 CNS was 1.07 µM; in the experiment on UACC-62 melanoma, 1.11 µM; in the experiment on SK-MEL-5 melanoma, 3.6 µM; in the experiment with NCI/ADR-RES ovarian it was 1.45 µM.
As to `Nc1ccc(-c2nc3ccc4[nH]ncc4c3c3c2CCCC3)cc1F`, the GI50 in the experiment with UO-31 renal is 1.01 µM; in the experiment with RPMI-8226 leukemia it was 0.842 µM; with SF-539 CNS, 1.38 µM; in the experiment on TK-10 renal it was 0.828 µM; in the experiment with A549 NSCLC it was 1.04 µM; in the experiment with DU-145 prostate it was 1.46 µM. The GI50 in the experiment with SNB-75 CNS is 1.35 µM; with UACC-62 melanoma it was 1.19 µM; with SK-MEL-5 melanoma, 0.986 µM; in the experiment with NCI/ADR-RES ovarian, 1.86 µM. Also, the TGI in the experiment with UO-31 renal amounted to 5.53 µM; with RPMI-8226 leukemia, 7.37 µM; in the experiment on SF-539 CNS, 5.85 µM; in the experiment with TK-10 renal, 22.4 µM; in the experiment on A549 NSCLC, 9.54 µM; with DU-145 prostate it was 20.2 µM. The TGI in the experiment with SNB-75 CNS was determined as 3.42 µM; in the experiment on UACC-62 melanoma, 6.71 µM; in the experiment with SK-MEL-5 melanoma, 4.53 µM; in the experiment with NCI/ADR-RES ovarian, 16.6 µM.
For `CCN(CC)CCN1C(=O)c2c(c(C)c3c(oc4cc(O)ccc43)c2C)C1=O`, the GI50 in the experiment with UO-31 renal is 1.48 µM; in the experiment with RPMI-8226 leukemia it was 1.77 µM; with SF-539 CNS, 1.68 µM; in the experiment on TK-10 renal, 1.93 µM; in the experiment with A549 NSCLC it was 2.05 µM; with DU-145 prostate, 1.72 µM. Further, the GI50 was 1.44 µM in the experiment on SNB-75 CNS, 1.58 µM in the experiment with UACC-62 melanoma, 1.56 µM with SK-MEL-5 melanoma and 1.66 µM with NCI/ADR-RES ovarian. In addition, the TGI stood at 2.81 µM in the experiment on UO-31 renal; 4.76 µM with RPMI-8226 leukemia; 3.05 µM in the experiment on SF-539 CNS; 3.62 µM in the experiment on TK-10 renal; 4.68 µM in the experiment with A549 NSCLC; 3.41 µM in the experiment with DU-145 prostate. The TGI was 2.8 µM in the experiment on SNB-75 CNS, 2.96 µM in the experiment with UACC-62 melanoma, 2.92 µM with SK-MEL-5 melanoma and 3.26 µM in the experiment on NCI/ADR-RES ovarian.
Consider `CCN1CCN(c2nc(NNC(=O)Cc3ccccc3)nc(N3CCN(C(c4ccccc4)c4ccccc4)CC3)n2)CC1`, for which the GI50 in the experiment with UO-31 renal is 1.39 µM; with RPMI-8226 leukemia it was 1.79 µM; in the experiment with SF-539 CNS, 1.78 µM; in the experiment with TK-10 renal it was 1.97 µM; in the experiment with A549 NSCLC, 2.17 µM; in the experiment with DU-145 prostate it was 2.73 µM. In addition, the GI50 in the experiment with SNB-75 CNS is 1.78 µM; in the experiment on UACC-62 melanoma, 1.71 µM; with SK-MEL-5 melanoma it was 1.71 µM; in the experiment on NCI/ADR-RES ovarian, 3.37 µM. Also, the TGI in the experiment with UO-31 renal amounted to 2.82 µM; in the experiment with RPMI-8226 leukemia it was 4.31 µM; with SF-539 CNS it was 3.24 µM; in the experiment with TK-10 renal, 3.85 µM; with A549 NSCLC it was 5.23 µM; with DU-145 prostate it was 7.2 µM. The TGI in the experiment on SNB-75 CNS was determined as 4.36 µM; with UACC-62 melanoma, 3.46 µM; with SK-MEL-5 melanoma it was 3.12 µM; in the experiment with NCI/ADR-RES ovarian, 14 µM.
